# Assay results taken from patent US12161719B2, “Method of enhancing the antimicrobial action of systemically administered antibiotics” (Koite Health Oy, priority 2019, dated 2024).
# Columns and labels:
# Assay type in all cases: cell-based
# [1] = test system: Streptococcus mutans biofilms; assay: 1 day biofilm test with Azithromycine, Indocyanine Green and light; details: 15 μg with Indocyanine Green
# Protocol: A further series of tests was carried out for Streptococcus mutans biofilms using Azithromycine (15 μg) and Indocyanine Green using light at 100 J/cm^2. For 1 day biofilms, the CFU was on an average <1 after treatment with dual light of 405 nm and 810 nm, respectively (at ratios of 3:1 to 1:3), whereas for either 405 nm or 810 nm wavelength light alone, the CFU was on an average below 100 after 1 day. For Azithromycine and Indocyanine Green without light, the CFU was about 1E06 to 1E07 after 1 day.
# [2] = test system: Streptococcus mutans 4 day biofilm; assay: 4-day biofilm effectivity test, colony formation (CFU)
# Description: FIG. 3 is a bar chart showing a comparison of the doxycycline effect with light excitations of 405 nm, dual-light (810 nm & 405 nm) and 370 nm to Streptococcus mutans colony formation in 4 day biofilm model; FIG. 4 is a bar chart showing the doxycycline effect against Streptococcus mutans 4 day biofilm for light excitation using a combination of light of 405 nm and 810 nm (“dual-light”) together with an ICG sensitizer, compared with light of 810 nm together with an ICG sensitizer (“doxy+aPDT”) and with 405 nm light without ICG sensitizer (“405”). A control of doxycycline is given as a reference; and […] is a bar chart showing a comparison of doxycycline effect with light excitations of […] on Streptococcus mutans colony formation in a 4-day biofilm effectivity test. FIG. 4 gives the CFU:s for Streptococcus mutans colonies on petri dishes after 4-day treatments, repeated 6 times with identical treatment and growth parameters, for four series of tests. The first (non-existent) bar represents the CFU:s for S. mutans colonies doxycycline which had been treated with doxycycline (30 μg) and dual light of 405 nm and 810 nm together with Indocyanine Green. The energy intensity of the light was 100 J/cm^2. […]
# [3] = Antibiotic susceptibility test (doxycycline disc on petri dishes, with or without light)
# Description: Antibiotic Susceptibility Test Each test was repeated 3 times with identical treatment and growth parameters. The calculated CFU:s for 100 J/cm^2 treated doxycycline disc results are shown in table 1 and representing image of difference between treated and non-treated doxy petri dish are shown in FIG. 1. […] Starting from the left is the doxycycline inhibition effect in dark, in the middle the resulting petri dish with 405 nm and 810 nm exposure and on the right side the petri dish with 405 nm excitation is shown.
# [4] = test system: planktonic Streptococcus mutans; assay: Planktonic bacteria test, light activation of doxycycline
# Description: FIG. 2 is a bar chart showing bacteria growth of Streptococcus mutans for four different treatments, illustrating the effect of light activation of doxycycline against planktonic Streptococcus mutans; FIG. 2 is a bar chart showing light activation of doxycycline at 405 nm in a planktonic bacteria test. […] 100 J of antibacterial blue light had minor reduction in CFU compared to non-exposed control.
Compound,"CFU on an average ([1]; 405 nm light alone, 100 J/cm^2, 1 day)","CFU on an average ([1]; 810 nm light alone, 100 J/cm^2, 1 day)","CFU on an average ([1]; dual light 405 nm and 810 nm (ratios 3:1 to 1:3), 100 J/cm^2, 1 day biofilms)",improvement of antibacterial light effect with the addition of doxycycline ([2]; 370 nm light),improvement of antibacterial light effect with the addition of doxycycline ([2]; 405 nm light),Regression diameter ([3]; 44 J/cm^2 405 nm + 60 J/cm^2 810 nm),Regression diameter ([3]; 83 J/cm^2 405 nm),"Regression diameter ([3]; no light, disc test, repeated 3 times)",bacteria growth ([4]; doxycycline without light),"bactericidal effect, bacteria killing ([4]; light activated at 405 nm)"
CC[C@H]1OC(=O)[C@H](C)[C@@H](O[C@H]2C[C@@](C)(OC)[C@@H](O)[C@H](C)O2)[C@H](C)[C@@H](O[C@@H]2O[C@H](C)C[C@H](N(C)C)[C@H]2O)[C@](C)(O)C[C@@H](C)CN(C)[C@H](C)[C@@H](O)[C@]1(C)O [Azithromycine],below 100,below 100,< 1,–,–,–,–,–,–,–
C[C@H]1c2cccc(O)c2C(=O)C2=C(O)[C@]3(O)C(=O)C(C(N)=O)=C(O)[C@@H](N(C)C)[C@@H]3[C@@H](O)[C@@H]21 [doxycycline],–,–,–,over 1.5 log,over 1.5 log,"29,66666667","30,33333","26,33333",≥ 10^7 CFU,over 3 log
